Laboratory results reported in patent US9096663B2, “Compositions and methods for treating conditions related to ephrin signaling with cupredoxins and mutants thereof” (The Board of Trustees of the University of Illinois, priority 2001, dated 2015).

Tests used:
Format in all cases: cell-based, human
[1] = system: Glioblastoma LN-229; test: MTT assay, glioblastoma LN-229; settings: 24 h; for induction of cell death, LN-229: 75 μM, 37° C.
Protocol: (§1) Cytotoxicity effects were determined by MTT assay. […] Percent cytotoxicity is expressed as percentage of ceil death as compared to that of untreated control (0% cytotoxicity).
(§2) Approximately 2×10^4 cells per well were seeded into 96-well culture plates in 100 μl of RPMI 1640 medium. […] After 24 or 48 h treatment, 10 μl of 5 mg/ml MTT solution was added to the culture and incubated for 1 h at 37° C. The MTT reaction was terminated by the addition of 40 mM HCl in isopropanol. The MTT formazan formed was measured spectrophotometrically as described earlier (Mosmann, 1983). Untreated control cells were compared to treated cells for determining viability and therefore a measure of cytotoxicity.

[2] = system: Astrocytoma CCF-STTG1; test: MTT assay, astrocytoma CCF-STTG1; settings: 75 μM, 24 h, 37° C.
Protocol: as §1, §2

[3] = system: MCF-7 breast cancer cells; test: MCF-7 cell growth, cells counted in coulter counter
Protocol: The extent of cell growth inhibition was about 25% at 5 ug/ml of the 18-mer synthetic peptide as compared to untreated control.

| Sequence | induction of cell death, LN-229 [1] | dose dependence of cytotoxicity, glioblastoma LN-229 ([1]; 10, 25, 50, 75, 100 μM) | induction of cell death, CCF-STTG1 [2] | inhibition of MCF-7 cell growth vs untreated control ([3]; 5 ug/ml) | inhibition of MCF-7 cell growth vs untreated cells ([3]; 50 ug/ml, 48 to 72 hours) |
| --- | --- | --- | --- | --- | --- |
| TFDVSKLKEGEQYMFFCT [Azu 96-113] | showed induction of cell death | increasing peptide concentrations led to increasing cytotoxicity | showed induction of cell death | about 25% | 50% |
| VRIKLSTPGVYGVYCE [Plc 70-84] | showed induction of cell death |  | showed induction of cell death |  |  |
